Experimental data from patent US20260001886A1, “ENPP1 INHIBITORS I” (RE Ventures I, LLC, priority 2024, published 2026).
pEC50, pKd: −log10 of the molar value.

Experiments:
human CA-I (CA1) = human CA-I (CA1) (Homo sapiens (Human), UniProt P00915); experiment: Surface plasmon resonance, carbonic anhydrase I; settings: 25° C., CM5 chip
Procedure: (§1) Cytiva Biacore S200, T200 and 3000 machines were used for all SPR experiments. […] For carbonic anhydrases, data were collected at a constant temperature of 25° C. Human CA-I (CA1) or human CA-II (CA2) was captured via standard EDC/NHS protocol on a Biacore CM5 chip using standard protocols in HBS-N buffer (10 mM HEPES (pH 7.4), 150 mM NaCl) at ˜2000 RU. The experiments were run in PBS buffer containing 0.05% Tween 20 and 3% DMSO. All compounds were initially screened at concentrations ranging from 23 nM to 50 µM or 4.6 nM to 10 µM, injecting from the lowest to highest concentrations and adjusting appropriately for each compound for repeat experiments. Scrubber 2 (Biologic software) was used to process and analyse SPR data. […] Data for the inhibitors were referenced to those for a blank surface and blank injections to normalise for non-specific binding and drift. A DMSO calibration was run to remove excluded volume effect of binding responses between reference and target surface.

human CA-II (CA2) [1] = biological target: T1, human CA-II (CA2) (Homo sapiens (Human), UniProt P00918); experiment: Surface plasmon resonance, carbonic anhydrase II; settings: 25° C., CM5 chip
Procedure: as §1

Human ENPP1 = Human ENPP1 (Homo sapiens (Human), UniProt P22413)
Procedure: ENPP1 catalyses the hydrolysis of ATP into AMP+PPi. AMP production was monitored using Bellbrooks Transcreener AMP/GMP TR-FRET assay kit (Cat No. 3020-10K) according to the manufacturer's instructions. The assay was run with 50 mM Tris pH 7.5, 5 mM MgCl2, 150 mM NaCl, 0.005% Tween20 and distilled H2O. Antibody and tracer were diluted to 2 nM. […] Mouse ENPP1 was run at 15 pM with ATP at 400 nM. AMP produced in the assay by ENPP1 activity competes with a far-red tracer labelled AMP bound to an AMP specific antibody resulting in a decrease in TR-FRET. ENPP1 inhibition reduces AMP production and increases the TR-FRET signal.

human CA-II (CA2) [2] = biological target: T1, human CA-II (CA2); experiment: biochemical
Procedure: as §1

Human ENPP1, sequence (P22413 whole entry): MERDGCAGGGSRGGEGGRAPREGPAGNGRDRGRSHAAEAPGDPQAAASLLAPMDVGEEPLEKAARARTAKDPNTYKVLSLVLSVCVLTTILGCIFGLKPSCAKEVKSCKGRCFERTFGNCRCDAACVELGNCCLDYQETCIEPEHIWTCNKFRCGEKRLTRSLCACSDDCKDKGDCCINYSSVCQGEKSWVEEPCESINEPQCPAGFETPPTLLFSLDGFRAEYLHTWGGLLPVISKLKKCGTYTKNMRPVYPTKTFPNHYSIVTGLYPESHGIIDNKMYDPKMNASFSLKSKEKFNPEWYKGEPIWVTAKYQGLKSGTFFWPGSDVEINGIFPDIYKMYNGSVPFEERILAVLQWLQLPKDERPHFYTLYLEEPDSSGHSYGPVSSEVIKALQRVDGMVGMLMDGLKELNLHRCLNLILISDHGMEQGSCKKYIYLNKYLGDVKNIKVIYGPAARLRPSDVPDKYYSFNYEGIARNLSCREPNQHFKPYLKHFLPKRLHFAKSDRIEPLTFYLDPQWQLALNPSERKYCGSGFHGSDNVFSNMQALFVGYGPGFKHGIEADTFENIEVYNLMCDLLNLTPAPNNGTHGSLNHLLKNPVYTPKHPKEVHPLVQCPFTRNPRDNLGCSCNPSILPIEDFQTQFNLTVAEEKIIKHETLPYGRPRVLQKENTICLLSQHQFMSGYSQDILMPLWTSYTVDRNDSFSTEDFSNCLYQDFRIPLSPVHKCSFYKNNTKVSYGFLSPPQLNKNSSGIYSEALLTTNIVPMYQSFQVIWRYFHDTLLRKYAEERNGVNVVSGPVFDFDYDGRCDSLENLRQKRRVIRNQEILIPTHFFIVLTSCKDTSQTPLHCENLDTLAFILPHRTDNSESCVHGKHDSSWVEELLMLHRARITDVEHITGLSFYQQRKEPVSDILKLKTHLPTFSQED
human CA-I (CA1), sequence (P00915 whole entry): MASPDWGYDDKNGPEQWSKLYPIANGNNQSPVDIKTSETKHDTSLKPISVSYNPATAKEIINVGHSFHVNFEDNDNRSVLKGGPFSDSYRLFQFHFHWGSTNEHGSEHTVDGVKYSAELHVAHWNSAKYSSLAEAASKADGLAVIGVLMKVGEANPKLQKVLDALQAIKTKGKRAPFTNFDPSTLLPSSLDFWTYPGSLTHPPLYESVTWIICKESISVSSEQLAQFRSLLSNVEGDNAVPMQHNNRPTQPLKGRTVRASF

SMILES	CA1 human SPR pKD (human CA-I (CA1))	CA2 human SPR pKD (human CA-II (CA2) [1])	pEC50 (Human ENPP1)	pKd (human CA-II (CA2) [2])
Cc1cc(S(C)(=N)=O)ccc1Cn1cc(C(C)C)c(=O)n2nc(C3CC3)cc12 (stereo not shown) [Compound 61, 2-Cyclopropyl-6-isopropyl-4-(2-methyl-4-(S-methylsulfonimidoyl)benzyl)pyrazolo[1,5-a]pyrimidin-7(4H)-one]	3.0	3.8	8.40	–
CC(C)c1cn(Cc2ccc(S(C)(=N)=O)cc2F)c2cc(C3CC3)nn2c1=O (stereo not shown) [Compound 62, 2-Cyclopropyl-4-(2-fluoro-4-(S-methylsulfonimidoyl)benzyl)-6-isopropylpyrazolo[1,5-a]pyrimidin-7(4H)-one]	<1	3.0	–	–
CC(C)c1cn(Cc2ccc(S(C)(=N)=O)c(F)c2)c2nc(C3CC3)nn2c1=O (stereo not shown) [Compound 63, 2-Cyclopropyl-4-(3-fluoro-4-(S-methylsulfonimidoyl)benzyl)-6-isopropyl-[1,2,4]triazolo[1,5-a]pyrimidin-7(4H)-one]	–	–	8.00	–
CC(C)c1cn(Cc2ccc(S(C)(=N)=O)cc2)c2nc(OC3CC3)nn2c1=O (stereo not shown) [Compound 25, 2-cyclopropoxy-6-isopropyl-4-(4-(S-methylsulfonimidoyl)benzyl)-[1,2,4]triazolo[1,5-a]pyrimidin-7(4H)-one]	–	–	8.20	–
CNc1nc(S(N)(=O)=O)ccc1Cn1cc(C(C)C)c(=O)n2nc(C3CC3)nc12 [Compound 29, 5-((2-cyclopropyl-6-isopropyl-7-oxo-[1,2,4]triazolo[1,5-a]pyrimidin-4(7H)-yl)methyl)-6-(methylamino)pyridine-2-sulfonamide]	–	–	–	4.50
CC(C)c1cn(Cc2ccc([S@@](=N)(=O)C(C)C)cc2)c2nc(C3CC3)nn2c1=O (single isomer, unassigned) [Compound 68]	–	–	8.20	–
COc1c(C2CC2)nn2c(=O)c(C(C)C)cn(C[C@H]3C[C@H]4C[C@@H]3CN4S(N)(=O)=O)c12 [Compound 44, (1S,4S,5S)-5-((2-Cyclopropyl-6-isopropyl-3-methoxy-7-oxopyrazolo[1,5-a]pyrimidin-4(7H)-yl)methyl)-2-azabicyclo[2.2.1]heptane-2-sulfonamide]	3.0	4.2	8.30	–
CC(C)c1cn(C[C@H]2C[C@H]3C[C@@H]2CN3S(N)(=O)=O)c2c3cccnc3nn2c1=O [Compound 41, (1S,4S,5S)-5-((3-Isopropyl-4-oxopyrido[2′,3′: 3,4]pyrazolo[1,5-a]pyrimidin-1 (4H)-yl)methyl)-2-azabicyclo[2.2.1]heptane-2-sulfonamide]	3.0	3.0	–	–
CC(C)c1cn(Cc2c(F)cc(S(C)(=N)=O)cc2F)c2nc(C3CC3)nn2c1=O (stereo not shown) [Compound 26, 2-cyclopropyl-4-(2,6-difluoro-4-(S-methylsulfonimidoyl)benzyl)-6-isopropyl-[1,2,4]triazolo[1,5-a]pyrimidin-7(4H)-one]	3.0	3.0	7.90	–
CC(C)c1cn(C[C@H]2C[C@H]3C[C@@H]2CN3S(N)(=O)=O)c2c(C#N)c(C3CC3)nn2c1=O [Compound 45, (1S,4S,5S)-5-((3-Cyano-2-cyclopropyl-6-isopropyl-7-oxopyrazolo[1,5-a]pyrimidin-4(7H)-yl)methyl)-2-azabicyclo[2.2.1]heptane-2-sulfonamide]	–	–	8.20	–
CC(C)c1cn(Cc2ccc([S@](C)(=N)=O)cc2F)c2nc(C3CC3)nn2c1=O (single isomer, unassigned) [Compound 69]	<1	<1	–	–
Cc1cc2n(Cc3ccc([S@](C)(=N)=O)cc3)cc(C(C)C)c(=O)n2n1 (single isomer, unassigned) [Compound 9B]	<1	<1	–	–
CC(C)c1cn(Cc2ccc(S(=N)(=O)C(F)F)cc2)c2nc(C3CC3)nn2c1=O (single isomer, unassigned) [Compound 50]	–	–	7.50	–
Cc1nc2n(C[C@H]3C[C@H]4C[C@@H]3CN4S(N)(=O)=O)cc(-c3cccnc3)c(=O)n2n1 [Compound 2, (1S,4S,5S)-5-((2-methyl-7-oxo-6-(pyridin-3-yl)-[1,2,4]triazolo[1,5-a]pyrimidin-4(7H)-yl)methyl)-2-azabicyclo[2.2.1]heptane-2-sulfonamide]	–	–	6.60	–
CC(C)c1nn2c(=O)c(C(C)C)cn(C[C@H]3C[C@H]4C[C@@H]3CN4S(N)(=O)=O)c2c1F [Compound 43, (1S,4S,5S)-5-((3-Fluoro-2,6-diisopropyl-7-oxopyrazolo[1,5-a]pyrimidin-4(7H)-yl)methyl)-2-azabicyclo[2.2.1]heptane-2-sulfonamide]	3.0	4.8	8.40	–
Cc1cc([S@@](C)(=N)=O)ccc1Cn1cc(C(C)C)c(=O)n2nc(C3CC3)cc12 (single isomer, unassigned) [Compound 66]	–	–	8.90	–
CC(C)c1cn(Cc2ccc(S(C)(=N)=O)c(C(F)(F)F)c2)c2cc(C3CC3)nn2c1=O (stereo not shown) [Compound 20, 2-cyclopropyl-6-isopropyl-4-(4-(S-methylsulfonimidoyl)-3-(trifluoromethyl)benzyl) pyrazolo[1,5-a]pyrimidin-7(4H)-one]	–	–	8.20	–
CC(C)c1cn(Cc2ccc(S(=N)(=O)C(C)C)cc2)c2nc(C3CC3)nn2c1=O (stereo not shown) [Compound 64, 2-Cyclopropyl-6-isopropyl-4-(4-(propan-2-ylsulfonimidoyl)benzyl)-[1,2,4]triazolo[1,5-a]pyrimidin-7(4H)-one]	–	–	8.10	–
CC(C)c1cn(C[C@H]2C[C@H]3C[C@@H]2CN3S(N)(=O)=O)c2nc(Cl)nn2c1=O [Compound 34, (1S,4S,5S)-5-((2-chloro-6-isopropyl-7-oxo-[1,2,4]triazolo[1,5-a]pyrimidin-4(7H)-yl)methyl)-2-azabicyclo[2.2.1]heptane-2-sulfonamide]	–	–	7.80	–
Cc1nc2n(C[C@H]3C[C@H]4C[C@@H]3CN4S(N)(=O)=O)cc(-c3ccc(F)cc3)c(=O)n2n1 [Compound 14, (1S,4S,5S)-5-((6-(4-fluorophenyl)-2-methyl-7-oxo-[1,2,4]triazolo[1,5-a]pyrimidin-4(7H)-yl)methyl)-2-azabicyclo[2.2.1]heptane-2-sulfonamide]	<1	3.0	8.40	–
CC(C)c1cn(Cc2ccc3c(c2)OCCS3(=N)=O)c2nc(C3CC3)nn2c1=O (stereo not shown) [Compound 53, 2-Cyclopropyl-4-((4-imino-4-oxido-3,4-dihydro-2H-4lambda4-benzo[b][1,4]oxathiin-7-yl)methyl)-6-isopropyl-[1,2,4]triazolo[1,5-a]pyrimidin-7(4H)-one]	–	–	7.00	–
CC(C)c1cn(Cc2ccc(S(C)(=N)=O)cc2F)c2nc(C3CC3)nn2c1=O (stereo not shown) [Compound 12, 2-cyclopropyl-4-(2-fluoro-4-(S-methylsulfonimidoyl)benzyl)-6-isopropyl-[1,2,4]triazolo[1,5-a]pyrimidin-7(4H)-one]	<1	3.0	–	–
Cc1nn2c(=O)c(C(C)C)cn(C[C@H]3C[C@H]4C[C@@H]3CN4S(N)(=O)=O)c2c1Cl [Compound 4, (1S,4S,5S)-5-((3-chloro-6-isopropyl-2-methyl-7-oxopyrazolo[1,5-a]pyrimidin-4(7H)-yl)methyl)-2-azabicyclo[2.2.1]heptane-2-sulfonamide]	3.0	4.9	–	–
CC(C)c1cn(Cc2ccc(S(C)(=N)=O)cc2)c2cc(C3CC3)nn2c1=O (stereo not shown) [Compound 57, 2-Cyclopropyl-6-isopropyl-4-(4-(S-methylsulfonimidoyl)benzyl)pyrazolo[1,5-a]pyrimidin-7(4H)-one]	<1	3.0	–	–
Cc1nc2n(Cc3ccc4c(c3)CCCS4(=N)=O)cc(C(C)C)c(=O)n2n1 (stereo not shown) [Compound 52, 4-((1-Imino-1-oxido-1/4-thiochroman-6-yl)methyl)-6-isopropyl-2-methyl-[1,2,4]triazolo[1,5-a]pyrimidin-7(4H)-one]	–	–	6.90	–
COc1cccc2c1nn1c(=O)c(C(C)C)cn(C[C@H]3C[C@H]4C[C@@H]3CN4S(N)(=O)=O)c21 [Compound 42, (1S,4S,5S)-5-((3-Isopropyl-7-methoxy-4-oxopyrimido[1,2-b]indazol-1 (4H)-yl)methyl)-2-azabicyclo[2.2.1]heptane-2-sulfonamide]	3.0	4.5	–	–
Cc1nc2n(C[C@H]3C[C@H]4C[C@@H]3CN4S(N)(=O)=O)cc(-c3cccc(F)c3)c(=O)n2n1 [Compound 6, (1S,4S,5S)-5-((6-(3-fluorophenyl)-2-methyl-7-oxo-[1,2,4]triazolo[1,5-a]pyrimidin-4(7H)-yl)methyl)-2-azabicyclo[2.2.1]heptane-2-sulfonamide]	3.0	3.6	7.00	–
COCc1nc2n(Cc3ccc(S(C)(=N)=O)cc3)cc(C(C)C)c(=O)n2n1 (stereo not shown) [Compound 33, 6-isopropyl-2-(methoxymethyl)-4-(4-(S-methylsulfonimidoyl)benzyl)-[1,2,4]triazolo[1,5-a]pyrimidin-7(4H)-one]	–	–	8.10	–
CC(C)c1cn(Cc2ccc3c(c2)CCS3(=N)=O)c2nc(C3CC3)nn2c1=O (stereo not shown) [Compound 48, 2-Cyclopropyl-4-((1-imino-1-oxido-2,3-dihydro-1H-1l4-benzo[b]thiophen-5-yl)methyl)-6-isopropyl-[1,2,4]triazolo[1,5-a]pyrimidin-7(4H)-one]	–	–	7.50	–
